Values of other authors, collected in paper PMC5731934, “Modifying glycyrrhetinic acid liposomes with liver-targeting ligand of galactosylated derivative: preparation and evaluations” (Oncotarget, 2017).

Set-up: method as in PMID 11752037

solubility in water: < 10 µg/mL
SMILES: CC1(C)[C@@H](O)CC[C@]2(C)[C@H]3C(=O)C=C4[C@@H]5C[C@@](C)(C(=O)O)CC[C@]5(C)CC[C@@]4(C)[C@]3(C)CC[C@@H]12 [GA, Glycyrrhetinic acid]
